# From patent US20240368078A1, “ARYL HETEROCYCLIC COMPOUNDS AS Kv1.3 POTASSIUM SHAKER CHANNEL BLOCKERS” (D.E. SHAW RESEARCH, LLC, priority 2021, published 2024)
# What was measured:
# Kv1.3 potassium channel = Kv1.3 potassium channel (Homo sapiens (Human), UniProt P22001); experiment: Kv1.3 potassium channel blocker activity, automated whole-cell patch clamp in CHO-K1 cells stably expressing Kv1.3; assay type: cell-based; settings: Patchliner patch clamp
# Method: Example 21. Evaluation of Kv1.3 Potassium Channel Blocker Activities
# This assay is used to evaluate the disclosed compounds' activities as Kv1.3 potassium channel blockers.
# CHO-K1 cells stably expressing Kv1.3 were grown in DMEM containing 10% heat-inactivated FBS, 1 mM sodium pyruvate, 2 mM L-glutamine, and G418 (500 μg/ml). Cells were grown in culture flasks at 37° C. in a 5% C02-humidified incubator.
# (§1) The cells were bathed in an extracellular solution containing 140 mM NaCl, 4 mM KCl, 2 mM CaCl2), 1 mM MgCl2, 5 mM glucose, 10 mM HEPES; pH adjusted to 7.4 with NaOH; 295-305 mOsm. The internal solution contained 50 mM KCl, 10 mM NaCl, 60 mM KF, 20 mM EGTA, 10 mM HEPES; pH adjusted to 7.2 with KOH; 285 mOsm. All compounds were dissolved in DMSO at 30 mM. Compound stock solutions were freshly diluted with external solution to concentrations of 30 nM, 100 nM, 300 nM, 1 μM, 3 μM, 10 μM, 30 μM and 100 μM. The highest content of DMSO (0.3%) was present in 100 μM.
# The currents were evoked by applying 100 ms depolarizing pulses from −90 mV (holding potential) to +40 mV were applied with 0.1 Hz frequency. Control (compound-free) and compound pulse trains for each compound concentration applied contained 20 pulses. 10-second breaks were used between pulse trains (see Table A below).
# Whole-cell current recordings and compound application were enabled by means of an automated patch clamp platform Patchliner (Nanion Technologies GmbH). EPC 10 patch clamp amplifier (HEKA Elektronik Dr. Schulze GmbH) along with Patchmaster software (HEKA Elektronik Dr. Schulze GmbH) was used for data acquisition. Data were sampled at 10 kHz without filtering. Passive leak currents were subtracted online using a P/4 procedure (HEKA Elektronik Dr. Schulze GmbH). Increasing compound concentrations were applied consecutively to the same cell without washouts in between. Total compound incubation time before the next pulse train was not longer than 10 seconds. Peak current inhibition was observed during compound equilibration.
# (§2) AUC and peak values were obtained with Patchmaster (HEKA Elektronik Dr. Schulze GmbH). To determine IC50, the last single pulse in the pulse train corresponding to a given compound concentration was used. Obtained AUC and peak values in the presence of compound were normalized to control values in the absence of compound. Using Origin (OridinLab), IC50 was derived from data fit to Hill equation: Icompound/Icontrol=(100-A)/(1+([compound]/IC50)nH)+A, where IC50 value is the concentration at which current inhibition is half-maximal, [compound] is the applied compound concentration, A is the fraction of current that is not blocked and nH is the Hill coefficient.
# hERG channel = hERG channel (Homo sapiens (Human), UniProt Q12809); experiment: hERG electrophysiology, automated whole-cell patch clamp in CHO-K1 cells stably expressing hERG; assay type: cell-based; settings: Patchliner patch clamp
# Method: Example 22. Evaluation of hERG Activities
# This assay is used to evaluate the disclosed compounds's inhibition activities against the hERG channel.
# This assay is used to evaluate the disclosed compounds' inhibition activities against the hERG channel.
# CHO-K1 cells stably expressing hERG were grown in Ham's F-12 Medium with glutamine containing 10% heat-inactivated FBS, 1% penicillin/streptomycin, hygromycin (100 μg/ml) and G418 (100 μg/ml). Cells were grown in culture flasks at 37° C. in a 5% CO2— humidified incubator.
# as §1, with “Glucose,” for “glucose,”
# The voltage protocol (see Table B) was designed to simulate voltage changes during a cardiac action potential with a 300 ms depolarization to +20 mV (analogous to the plateau phase of the cardiac action potential), a repolarization for 300 ms to −50 mV (inducing a tail current) and a final step to the holding potential of −80 mV. The pulse frequency was 0.3 Hz. Control (compound-free) and compound pulse trains for each compound concentration applied contained 70 pulses.
# Whole-cell current recordings and compound application were enabled by means of an automated patch clamp platform Patchliner (Nanion). EPC 10 patch clamp amplifier (HEKA) along with Patchmaster software (HEKA Elektronik Dr. Schulze GmbH) was used for data acquisition. Data were sampled at 10 kHz without filtering. Increasing compound concentrations were applied consecutively to the same cell without washouts in between.
# as §2, with “PEAK” for “peak”, “IC50” for “IC50,”, “Icompound/Icontrol=(100−A)/(1+([compound]/IC50)nH)+A,” for “Icompound/Icontrol=(100-A)/(1+([compound]/IC50)nH)+A,”, “IC50” for “IC50 value”
# hERG channel, sequence (Q12809 whole entry): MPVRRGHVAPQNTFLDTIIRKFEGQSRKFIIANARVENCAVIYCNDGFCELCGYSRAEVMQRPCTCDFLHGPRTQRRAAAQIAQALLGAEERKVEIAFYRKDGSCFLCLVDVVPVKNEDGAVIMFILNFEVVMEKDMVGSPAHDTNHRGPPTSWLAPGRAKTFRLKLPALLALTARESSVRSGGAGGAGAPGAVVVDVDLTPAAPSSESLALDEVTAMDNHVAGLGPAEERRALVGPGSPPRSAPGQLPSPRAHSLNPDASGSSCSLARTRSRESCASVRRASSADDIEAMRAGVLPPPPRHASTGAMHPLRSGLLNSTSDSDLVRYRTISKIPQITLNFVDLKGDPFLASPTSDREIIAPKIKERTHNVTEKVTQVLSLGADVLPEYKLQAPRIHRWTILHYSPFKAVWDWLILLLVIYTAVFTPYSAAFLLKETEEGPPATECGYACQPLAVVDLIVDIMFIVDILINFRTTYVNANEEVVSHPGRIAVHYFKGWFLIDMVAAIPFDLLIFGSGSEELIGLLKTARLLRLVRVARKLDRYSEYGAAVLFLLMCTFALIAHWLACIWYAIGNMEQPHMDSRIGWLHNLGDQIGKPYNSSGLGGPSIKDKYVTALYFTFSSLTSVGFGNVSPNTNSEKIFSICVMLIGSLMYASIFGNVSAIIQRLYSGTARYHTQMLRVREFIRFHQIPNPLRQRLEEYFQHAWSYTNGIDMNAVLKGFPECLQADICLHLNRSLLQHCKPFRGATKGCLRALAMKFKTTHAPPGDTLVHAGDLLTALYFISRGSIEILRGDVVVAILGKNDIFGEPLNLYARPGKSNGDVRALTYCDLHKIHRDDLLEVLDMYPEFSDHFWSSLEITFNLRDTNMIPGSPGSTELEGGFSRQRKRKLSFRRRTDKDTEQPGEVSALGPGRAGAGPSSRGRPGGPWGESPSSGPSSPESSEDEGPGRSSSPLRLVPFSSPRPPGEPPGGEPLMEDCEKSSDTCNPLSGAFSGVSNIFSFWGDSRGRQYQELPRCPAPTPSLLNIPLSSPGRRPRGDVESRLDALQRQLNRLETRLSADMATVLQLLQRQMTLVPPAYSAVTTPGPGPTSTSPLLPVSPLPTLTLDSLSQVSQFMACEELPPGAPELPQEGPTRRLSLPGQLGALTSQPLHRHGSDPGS
# Kv1.3 potassium channel, sequence (P22001 whole entry): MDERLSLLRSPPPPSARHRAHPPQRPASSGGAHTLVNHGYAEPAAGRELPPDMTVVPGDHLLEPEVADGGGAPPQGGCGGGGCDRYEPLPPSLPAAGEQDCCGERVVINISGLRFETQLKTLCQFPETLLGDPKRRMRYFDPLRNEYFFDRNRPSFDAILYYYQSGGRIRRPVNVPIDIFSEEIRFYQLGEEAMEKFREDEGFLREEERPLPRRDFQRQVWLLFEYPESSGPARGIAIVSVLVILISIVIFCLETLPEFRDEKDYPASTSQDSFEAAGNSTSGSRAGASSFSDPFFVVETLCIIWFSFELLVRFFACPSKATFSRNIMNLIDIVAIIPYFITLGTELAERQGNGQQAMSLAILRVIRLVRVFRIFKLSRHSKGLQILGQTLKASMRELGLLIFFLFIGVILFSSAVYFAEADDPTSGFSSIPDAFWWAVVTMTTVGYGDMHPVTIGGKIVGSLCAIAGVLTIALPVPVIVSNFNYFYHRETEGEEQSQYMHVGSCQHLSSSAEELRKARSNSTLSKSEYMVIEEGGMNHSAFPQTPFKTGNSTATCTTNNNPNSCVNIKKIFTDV
SMILES,IC50 (Kv1.3 potassium channel),IC50 (hERG channel)
"CNC(=O)C[C@H]1CN[C@@H](c2c(O)ccc(Cl)c2Cl)C1 [Compound 42, 2-((3S,5R)-5-(2,3-dichloro-6-hydroxyphenyl)pyrrolidin-3-yl)-N-methylacetamide]",< 0.1 µM,> 30 µM
"CN(CCO)C(=O)CC1CN[C@@H](c2c(O)ccc(Cl)c2Cl)C1 (stereo partly drawn) [Compound 35, 2-((5R)-5-(2,3-dichloro-6-hydroxyphenyl)pyrrolidin-3-yl)-N-(2-hydroxyethyl)-N-methylacetamide]",< 0.1 µM,> 30 µM
"NC(=O)C(CO)[C@H]1CN[C@@H](c2c(O)ccc(Cl)c2Cl)C1 (single isomer, unassigned) [Compound 77]",< 0.1 µM,> 100 µM
"O=C(C[C@H]1CN[C@@H](c2c(O)ccc(Cl)c2Cl)C1)N1CC[C@@H]1CO [Compound 67, 2-((3S,5R)-5-(2,3-dichloro-6-hydroxyphenyl)pyrrolidin-3-yl)-1-((R)-2-(hydroxymethyl)azetidin-1-yl)ethan-1-one]",< 1 µM,> 100 µM
"CC(C)(C(N)=O)[C@H]1CN[C@@H](c2c(O)ccc(Cl)c2Cl)C1 [Compound 52, 2-[(3S,5R)-5-(2,3-dichloro-6-hydroxyphenyl)pyrrolidin-3-yl]-2-methylpropanamide]",< 1 µM,> 30 µM
"O=C(CC1CN[C@@H](c2c(O)ccc(Cl)c2Cl)C1)N1CC[C@@H](O)C1 (stereo partly drawn) [Compound 39, 2-((5R)-5-(2,3-dichloro-6-hydroxyphenyl)pyrrolidin-3-yl)-1-((R)-3-hydroxypyrrolidin-1-yl)ethan-1-one]",< 0.1 µM,> 100 µM
"C[C@@H](O)CNC(=O)C[C@H]1CN[C@@H](c2c(O)ccc(Cl)c2Cl)C1 [Compound 64, 2-((3S,5R)-5-(2,3-dichloro-6-hydroxyphenyl)pyrrolidiin-3-yl)-N-((R)-2-hydroxypropyl)acetamide]",< 0.1 µM,> 100 µM
"CN(C)C(=O)CC1CN[C@@H](c2c(O)ccc(Cl)c2Cl)C1 (stereo partly drawn) [Compound 37, 2-((5R)-5-(2,3-dichloro-6-hdyroxyphenyl)pyrrolidin-3-yl)-N,N-dimethylacetamide]",< 1 µM,> 30 µM
"COC[C@H](C(N)=O)[C@H]1CN[C@@H](c2c(O)ccc(Cl)c2Cl)C1 (single isomer, unassigned) [Compound 74]",< 1 µM,> 100 µM
"CC(C)(O)CNC(=O)C[C@H]1CN[C@@H](c2c(O)ccc(Cl)c2Cl)C1 [Compound 66, 2-((3S,5R)-5-(2,3-dichloro-6-hydroxyphenyl)pyrrolidin-3-yl)-N-(2-hydroxy-2-methylpropyl)acetamide]",< 1 µM,> 100 µM
"CC[C@H](C(N)=O)[C@H]1CN[C@@H](c2c(O)ccc(Cl)c2Cl)C1 (single isomer, unassigned) [Compound 47]",< 0.1 µM,100 µM
"O=C(CC1CN[C@@H](c2c(O)ccc(Cl)c2Cl)C1)N1CC[C@H](O)C1 (stereo partly drawn) [Compound 40, 2-((5R)-5-(2,3-dichloro-6-hydroxyphenyl)pyrrolidin-3-yl)-1-((S)-3-hydroxypyrrolidin-1-yl)ethan-1-one]",< 1 µM,> 100 µM
"C[C@H](CO)NC(=O)C[C@H]1CN[C@@H](c2c(O)ccc(Cl)c2Cl)C1 [Compound 63, 2-((3S,5R)-5-(2,3-dichloro-6-hydroxyphenyl)pyrrolidin-3-yl)-N-((R)-1-hydroxypropan-2-yl)acetamide]",< 0.1 µM,> 100 µM
"CC(C)(CO)NC(=O)C[C@H]1CN[C@@H](c2c(O)ccc(Cl)c2Cl)C1 [Compound 71, 2-((3S,5R)-5-(2,3-dichloro-6-hydroxyphenyl)pyrrolidin-3-yl)-N-(1-hydroxy-2-methylpropan-2-yl)acetamide]",< 1 µM,> 100 µM
"O=C(C[C@H]1CN[C@@H](c2c(O)ccc(Cl)c2Cl)C1)N1CC(O)(CO)C1 [Compound 43, 2-((3S,5R)-5-(2,3-dichloro-6-hydroxyphenyl)pyrrolidin-3-yl)-1-(3-hydroxy-3-(hydroxymethyl)azetidin-1-yl)ethan-1-one]",< 0.1 µM,> 100 µM
"CNC(=O)CC1CN[C@@H](c2c(O)ccc(Cl)c2Cl)C1 (stereo partly drawn) [Compound 36, 2-((5R)-5-(2,3-dichloro-6-hydroxyphenyl)pyrrolidin-3-yl)-N-methylacetamide]",< 0.1 µM,> 30 µM
"Oc1ccc(Cl)c(Cl)c1[C@H]1C[C@@H](Cc2cc[nH]n2)CN1 [Compound 55, 2-((2R,4S)-4-((1H-pyrazol-3-yl)methyl)pyrrolidin-2-yl)-3,4-dichlorophenol]",< 1 µM,> 10 µM
"COC[C@@H](C(N)=O)[C@H]1CN[C@@H](c2c(O)ccc(Cl)c2Cl)C1 (single isomer, unassigned) [Compound 75]",< 1 µM,> 100 µM
"Oc1ccc(Cl)c(Cl)c1[C@H]1C[C@@H](Cc2cn[nH]c2)CN1 [Compound 54, 3,4-dichloro-2-[(2R,4R)-4-(1H-pyrazol-4-ylmethyl)pyrrolidin-2-yl] phenol]",< 0.1 µM,> 10 µM
"C[C@H](O)CNC(=O)C[C@H]1CN[C@@H](c2c(O)ccc(Cl)c2Cl)C1 [Compound 65, 2-((3S,5R)-5-(2,3-dichloro-6-hydroxyphenyl)pyrrolidin-3-yl)-N-((S)-2-hydroxypropyl)acetamide]",< 0.1 µM,> 100 µM
"CC1(O)CN(C(=O)C[C@H]2CN[C@@H](c3c(O)ccc(Cl)c3Cl)C2)C1 [Compound 61, 2-((3S,5R)-5-(2,3-dichloro-6-hydroxyphenyl)pyrrolidin-3-yl)-1-(3-hydroxy-3-methylazetidin-1-yl)ethan-1-one]",< 0.1 µM,> 100 µM
"O=C(CO)NC[C@H]1CN[C@@H](c2c(O)ccc(Cl)c2Cl)C1 [Compound 49, N-(((3R,5R)-5-(2,3-dichloro-6-hydroxyphenyl)pyrrolidin-3-yl)methyl)-2-hydroxyacetamide]",< 1 µM,> 100 µM
"NC(=O)CC1CN[C@@H](c2cc(Cl)c(Cl)cc2O)C1 (stereo partly drawn) [Compound 38, 2-((5R)-5-(4,5-dichloro-2-hydroxyphenyl)pyrrolidin-3-yl)acetamide]",< 1 µM,> 10 µM
